Results reported in patent publication US20250163122A1, “COMPOSITIONS AND METHODS FOR TREATING AIRWAY MUCUS DYSFUNCTION” (BOARD OF REGENTS, THE UNIVERSITY OF TEXAS SYSTEM, priority 2022, published 2025).
Where a SMILES comes first, the peptide text is derived from it. Bridges are numbered along the chain shown (N, C = ends). [ ]: non-standard residue; d: D form. S5 = C=CCCC[C@](C)(N)C(=O)O

Key:
[1] = molecular target: airway epithelial SNAREs, Syt2, Munc13-2*, Munc18-2, NSF, and αSNAP (Rattus norvegicus, UniProt P29101); experiment: Single vesicle content mixing assay, airway system with complete reconstitution; assay type: biochemical; conditions: for Ca2+ independent fusion events / Ca2+ triggered fusion events: Munc13-2* + 10 μM SP9, raw count
Sequence of airway epithelial SNAREs, Syt2, Munc13-2*, Munc18-2, NSF, and αSNAP (P29101 whole entry, the tested form may be a part): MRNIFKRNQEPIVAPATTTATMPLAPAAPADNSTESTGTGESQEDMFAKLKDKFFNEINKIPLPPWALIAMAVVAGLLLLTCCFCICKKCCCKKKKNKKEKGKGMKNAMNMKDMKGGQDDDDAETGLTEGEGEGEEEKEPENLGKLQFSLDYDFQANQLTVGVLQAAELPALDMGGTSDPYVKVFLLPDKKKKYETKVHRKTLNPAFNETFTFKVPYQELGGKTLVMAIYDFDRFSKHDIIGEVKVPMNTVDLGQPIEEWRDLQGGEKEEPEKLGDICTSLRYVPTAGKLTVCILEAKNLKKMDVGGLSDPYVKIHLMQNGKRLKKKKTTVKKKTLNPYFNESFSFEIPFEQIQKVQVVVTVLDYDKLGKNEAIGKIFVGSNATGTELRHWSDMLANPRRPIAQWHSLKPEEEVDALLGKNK
Method: FIGS. 3A-3G show the effect of stapled peptides on fusion with complete airway system reconstitution according to certain aspects of this disclosure. […] PM: vesicles with reconstituted Stx3 and SNAP-23 that mimic the plasma membrane of epithelial cells; SM: vesicles with reconstituted Stx3/Munc18-2 complex; SG: mucin-containing secretory granules. 0.5 μM Munc13-2* fragment was added after formation of the SM vesicles and during all subsequent stages. 10 μM stapled peptide was added together with SG vesicles and was present during all subsequent stages. […] The fusion probabilities and amplitudes were normalized to the number of analyzed SG—airway PM vesicle pairs (see TABLE 4). FIGS. 3C, 3E, 3F, and 3G show means±SEM for multiple independent repeat experiments (see TABLE 2).
For single vesicle content mixing assay, the lipid composition of the SV, SG, VAMP2, or VAMP8 vesicles was phosphatidylcholine (PC) (48%), phosphatidylethanolamine (PE) (20%), phosphatidylserine (PS) (12%), and cholesterol (20%); for both the neuronal and airway PM vesicles the lipid composition was Brain Total Lipid Extract supplemented 3.5 mol % PIP2, and 0.1 mol % biotinylated phosphatidylethanolamine (PE).
The reconstitution method for neuronal PM and SV vesicles was described in detail previously (see Lai et al., 2017; Kyoung et al., 2011; and Lai et al., 2014). The same methods were used for airway PM, SG, VAMP2, and VAMP8 vesicles. Dried lipid films were dissolved in 110 mM OG buffer containing purified proteins at protein-to-lipid ratios of 1:200 for VAMP2 and Stx1A for SV and neuronal PM vesicles, respectively (or 1:200 for VAMP8 and Stx3 for SG and airway PM vesicles, respectively), and 1:800 for Syt1 for SV vesicles (or 1:1200 for Syt2 for SG vesicles).
A 3-5 fold excess of SNAP-25A or SNAP-23 (with respect to Stx1A or Stx3) and 3.5 mol % PIP2 were added to the protein-lipid mixture for neuronal or airway PM vesicles. […] For the preparation of SV, SG, VAMP2, or VAMP8 vesicles for single vesicle content mixing assay, 50 mM sulforhodamine B (Thermo Fisher Scientific) was added to the protein-lipid mixture. The vesicles subsequently formed during size exclusion chromatography using a Sepharose CL-4B column, packed under near constant pressure by gravity with a peristaltic pump (GE Healthcare) in a 5.5 ml column with a ˜5 ml bed volume that was equilibrated with buffer V (20 mM HEPES, pH 7.4, 90 mM NaCl) supplemented with 20 μM EGTA and 0.1% 2-mercaptoethanol. The eluent was subjected to dialysis into 21 of detergent-free buffer V supplemented with 20 μM EGTA, 0.1% 2-mercaptoethanol, 5 g of Bio-beads SM2 (Bio-Rad) and 0.8 g/L Chelex 100 resin (Bio-Rad). After 4 hours, the buffer was exchanged with 21 of fresh buffer V supplemented with 20 μM EGTA, 0.1% 2-mercaptoethanol and Bio-beads, and the dialysis continued for another 12 h (overnight). […] For ensemble lipid mixing assay, the reconstitution method is the same as that for the single vesicle content mixing assay, except that 50 mM sulforhodamine B was omitted for all the steps.
Single vesicle content mixing experiments. All single vesicle fusion and single molecule experiments were performed on a prism-type total internal reflection fluorescence (TIRF) microscope using 532 nm (green) laser (CrystaLaser) excitation. Two observation channels were created by a 640 nm single-edge dichroic beamsplitter (FF640-FDi01-25x36, Shemrock): one channel was used for the fluorescence emission intensity of the content dyes and the other channel for that of the Cy5 dye that are part of the injected Ca^2+-solution. The two channels were recorded on two adjacent rectangular areas (45×90 m^2) of a charge-coupled device (CCD) camera (iXon+DV 897E, Andor Technology). The imaging data were recorded with the smCamera software developed by Taekjip Ha, Johns Hopkins University, Baltimore. […]

Syt1 C2B = Syt1 C2B (Rattus norvegicus, UniProt P21707); experiment: Bulk fluorescence anisotropy binding, Syt1 C2B; conditions: Cy3 labeled peptide
Sequence of Syt1 C2B (P21707 271-421): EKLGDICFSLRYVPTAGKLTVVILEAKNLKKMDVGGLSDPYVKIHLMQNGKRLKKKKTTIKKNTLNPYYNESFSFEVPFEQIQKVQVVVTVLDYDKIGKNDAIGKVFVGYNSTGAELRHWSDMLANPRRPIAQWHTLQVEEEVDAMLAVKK
Method: (§1) Bulk fluorescence anisotropy measurements. In the bulk fluorescence anisotropy experiments, the P0 and SP9 peptides were labeled with the fluorescent dye Cy3 at the C-terminus. Anisotropy was measured with a Tecan Infinite […] fluorimeter using an excitation wavelength of 530±5 nm and emission wavelength of 580±5 nm at 27.2° C. The fluorescent dye labeled samples were diluted to 10 nM concentration in TBS (20 mM Tris, pH 7.5, 150 mM NaCl, 0.5 mM TCEP) for optimal read out.

Syt2 C2B = Syt2 C2B (Rattus norvegicus, UniProt P29101); experiment: Bulk fluorescence anisotropy binding, Syt2 C2B; conditions: Cy3 labeled peptide
Sequence of Syt2 C2B (P29101 272-422): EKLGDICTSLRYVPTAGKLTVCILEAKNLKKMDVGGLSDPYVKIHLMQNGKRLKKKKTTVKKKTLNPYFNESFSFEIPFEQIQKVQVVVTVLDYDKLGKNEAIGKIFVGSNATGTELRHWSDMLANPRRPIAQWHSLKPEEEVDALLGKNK
Method: as §1

Molecule: CC[C@H](C)[C@H](NC(=O)[C@]1(C)CCCC=CCCC[C@](C)(NC(=O)[C@H](CCC(=O)O)NC(=O)[C@H](CCC(=O)O)NC(C)=O)C(=O)N[C@@H](CCCCN)C(=O)N[C@@H](CC(=O)O)C(=O)N[C@@H](C)C(=O)N1)C(=O)N[C@@H](CCCNC(=N)N)C(=O)N[C@@]1(C)CCCC=CCCC[C@@](C)(C(=O)N[C@@H](CC(=O)O)C(=O)N[C@@H](CCC(=O)O)C(=O)N[C@@H](CCC(N)=O)C(=O)N[C@@H](CS)C(N)=O)NC(=O)[C@H](CCSC)NC(=O)[C@H](C(C)C)NC(=O)[C@H](CC(C)C)NC1=O [SP9, Ac-EE(S5)KDA(S5)IR(S5)LVM(S5)DEQC-amide] (Ac-EE[S5]KDA[S5]IR[S5]LVM[S5]DEQC-NH2; staple 3-7, 10-14)
- effect on Ca2+-independent fusion probability ([1]; 10 μM peptide): only moderately reduced
- effect on vesicle association ([1]; 10 μM peptide): no effect
- effect on Ca2+-triggered fusion amplitude, cumulative fusion probability and synchronization ([1]; 10 μM peptide, both 50 μM and 500 μM Ca2+): strongly inhibited
- Ca2+ independent fusion events ([1]; 50 μM Ca2+ experiment): 23
- Ca2+ triggered fusion events ([1]; 50 μM Ca2+): 89
- Ca2+ independent fusion events ([1]; 500 μM Ca2+ experiment): 41
- Ca2+ triggered fusion events ([1]; 500 μM Ca2+): 106

Molecule: EESKDAGIRTLVMLDEQGEQLD [Peptide P0, non-stapled SNAP-25A fragment used as a control, reference compound]
- binding to C2B domain of Syt1 (Syt1 C2B): no binding
- binding to C2B domain of Syt2 (Syt2 C2B): no binding
